Tests used:
[1] = test system: newly myelinated fibers within the spinal cord; experiment: LPC-induced focal demyelination in the dorsal column of the spinal cord; type: in vivo, C57BL/6 female mice; settings: 25 mg/kg intraperitoneally daily, days 4 to 13 post laminectomy, versus vehicle
Protocol: Focal demyelination in the dorsal column of the spinal cord was induced by the injection of 1% LPC solution. 12 week old C57BL/6 female mice were anesthetized using isoflurane and T10 laminectomies were performed. 1 μl of 1% LPC was infused into the dorsal column at a rate of 15 al/hour. At day 4, animals were randomized into treatment groups prior to treatment (2 animals were excluded due to surgical complications). […] Drugs were dissolved in DMSO and ethanol or corn oil and then diluted with sterile saline for injections. This experiment was done in a blinded manner: compounds were coded to ensure the researchers performing the experiments were unaware of the treatment being administered to each animal. […] Mice were anesthetized using ketamine/xylazine rodent cocktail and then euthanized by transcardial perfusion with 4% PFA, 2% glutaraldehyde, and 0.1 M sodium cacodylate. […] The number of myelinated axons per unit areas was counted from sections in the middle of each lesion and then averaged over each treatment group. […]
Focal demyelination in the dorsal column of the spinal cord was induced by the injection of 1% LPC solution. […] The number of myelinated axons per unit area was counted from sections obtained from the middle of each lesion and then averaged over each treatment group. All sections within the lesion area were scored. […]

[2] = target: T1, EBP (Mus musculus, UniProt P70245); experiment: GC/MS-based sterol profiling in EpiSC-derived OPCs (EBP inhibition); type: cell-based
T1 construct: endogenous in cells; host or cells: mouse EpiSC-derived oligodendrocyte progenitor cells (EpiSC5 line)
T1 sequence (P70245 1-230): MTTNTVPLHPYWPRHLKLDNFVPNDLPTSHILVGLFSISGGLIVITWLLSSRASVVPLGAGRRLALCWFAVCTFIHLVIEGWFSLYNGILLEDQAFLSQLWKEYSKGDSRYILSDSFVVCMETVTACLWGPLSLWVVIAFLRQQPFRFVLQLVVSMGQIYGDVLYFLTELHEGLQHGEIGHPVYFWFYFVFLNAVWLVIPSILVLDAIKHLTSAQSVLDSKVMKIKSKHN
Protocol: EpiSC-derived OPCs were plated at one million cells per well in PDL- and laminin-coated six well plates with differentiation media. After 24 hours, cells were dissociated with Accutase, rinsed with saline, and cell pellets were frozen. For sterol analyses, cells were lysed in methanol (Sigma-Aldrich) with agitation for 30 minutes and cell debris removed by centrifugation at 10,000 rpm for 15 min. Cholesterol-d7 standard (25,26,26,26,27,27,27-^2H7-cholesterol, Cambridge Isotope Laboratories) was added before drying under nitrogen stream and derivatization with 55 al of bis(trimethylsilyl)trifluoroacetamide/trimethylchlorosilane to form trimethylsilyl derivatives. Following derivatization at 60° C. for 20 minutes, 1 μl was analyzed by gas chromatography/mass spectrometry using an Agilent 5973 Network Mass Selective Detector equipped with a 6890 gas chromatograph system and a HP-5MS capillary column ([…]). Samples were injected in splitless mode and analyzed using electron impact ionization. Ion fragment peaks were integrated to calculate sterol abundance, and quantitation was relative to cholesterol-d7. The following m/z ion fragments were used to quantitate each metabolite: cholesterol-d7 (465), FF-Mas (482), cholesterol (368), zymostenol (458), zymosterol (456), desmosterol (456, 343), 7-dehydrocholesterol (456, 325), lanosterol (393), lathosterol (458), 14-dehydrozymostenol (456). […] After derivatization, 1 al was analyzed by gas chromatography/mass spectrometry using an Agilent 5973 Network Mass Selective Detector equipped with a 6890 gas chromatograph system and a HP-5MS capillary column ([…]). Samples were analyzed in full scan mode using electron impact ionization; ion fragment peaks were integrated to calculate sterol abundance, and quantitation was relative to cholesterol-d7. The following ion fragments were used to quantitate each metabolite: cholesterol-d7 (465), cholesterol (368)(Sigma Aldrich), zymostenol (458), All standards were obtained from Avanti Polar Lipids unless otherwise indicated. […]

[3] = 100 nm, 24 hours, versus DMSO control

SMILES: CCN(C/C=C\c1ccc(C2CCCCC2)c(Cl)c1)C1CCCCC1 [Cis-N-cyclohexyl-N-ethyl-3-(3-chloro-4-cyclohexylphenyl)prop-2-enylamine]
- myelin formation in the demyelinated lesion, electron microscopy (FIG. 7C) [1]: new myelin formation
- number of toluidine Blue-stained newly myelinated fibers within the spinal cord (FIG. 7F) [1]: significantly increased
- zymostenol in mouse OPCs (FIG. 5) ([2]; 10 nM, 30 nM, 100 nM): accumulate zymostenol
- cholesterol in OPCs (FIG. 1B) [2, 3]: produce lesser amounts of cholesterol
- zymostenol in OPCs (FIG. 1B) [2, 3]: accumulate zymostenol

Reference: patent US10918610B2, “Compounds and methods of promoting myelination” (Case Western Reserve University, priority 2017, dated 2021)
